Reference: patent publication US20260183302A1, “PDK1 REGULATORY COMPOUND AND COMPOSITION CONTAINING THE SAME” (PROVIBIO CO., LTD., priority 2024, published 2026)

What was measured:
[1] = test system: T cells isolated from mouse spleens; assay: T cell proliferation inhibition (CFSE flow cytometry, anti-CD3/anti-CD28 stimulation); assay type: cell-based, C57BL/6 mice; conditions: three days
Procedure, shortened: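 Splenic T cells from 7-week-old C57BL/6 mice, CFSE-labelled, 2× 10^5 cells/well, stimulated with anti-CD3 and anti-CD28 (0.5 μg/mL each). Compound at 10 nM-50 μM in triplicate for three days at 37 °C, 5% CO2; proliferation inhibition (%) derived by flow cytometry.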

[2] = test system: Human multiple myeloma, KMS34; assay: Relative cell viability, KMS34 (CCK-8); assay type: cell-based; conditions: concentration 1 μM, relative to untreated cells
Procedure: (§1) After that, 10 μL of CCK-8 was added to each well, and the plate was incubated again at 37° C. in a 5% CO2 incubator for 2 hours.
(§2) In other words, when the survival rate of untreated cells (DMSO) is set at 100%, the relative cell survival rate in each group treated with the drug at different concentrations is indicated.

[3] = test system: Human multiple myeloma, KMS26; assay: Relative cell viability, KMS26 (CCK-8); assay type: cell-based; conditions: KMS26, 1 μM
Procedure: as §1, §2

[4] = target: T1, full-length PDK1 (PDK1-FL) (Homo sapiens, UniProt O15530); assay: Binding affinity by Microscale Thermophoresis (MST), full-length PDK1; conditions: Kd full-length vs PKD fragment
T1 construct: the full-length (PDK1-FL) protein of human-derived PDK1; His tag (inferred by me from the Ni-NTA purification); made in house; host or cells: Sf9 insect cells, baculovirus
T1 sequence (O15530 1-556): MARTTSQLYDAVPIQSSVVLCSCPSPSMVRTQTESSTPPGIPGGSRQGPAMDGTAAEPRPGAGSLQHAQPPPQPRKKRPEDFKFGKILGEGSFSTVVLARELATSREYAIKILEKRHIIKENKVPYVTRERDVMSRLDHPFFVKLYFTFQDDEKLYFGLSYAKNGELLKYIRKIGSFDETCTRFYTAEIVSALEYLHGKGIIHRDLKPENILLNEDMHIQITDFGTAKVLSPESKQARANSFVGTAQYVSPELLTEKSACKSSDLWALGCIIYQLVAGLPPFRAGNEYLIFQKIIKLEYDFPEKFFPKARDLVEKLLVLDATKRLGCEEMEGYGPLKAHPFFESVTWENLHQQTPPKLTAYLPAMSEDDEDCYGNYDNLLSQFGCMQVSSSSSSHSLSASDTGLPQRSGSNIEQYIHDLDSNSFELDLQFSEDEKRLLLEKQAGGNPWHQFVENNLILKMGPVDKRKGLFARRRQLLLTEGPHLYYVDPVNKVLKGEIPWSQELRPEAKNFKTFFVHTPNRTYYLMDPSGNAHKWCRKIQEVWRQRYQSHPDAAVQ
Procedure: Microscale Thermophoresis (MST) analysis was performed to quantitatively measure the binding affinity between PDK1 protein and substrate peptides (PDKTide) or the company-developed low-molecular-weight compound (GO88).
The target proteins were the full-length (PDK1-FL) protein of human-derived PDK1 and the Protein Kinase Domain (PKD) fragment, which were expressed using a baculovirus expression system in insect cell lines (Sf9).
The purity of the purified proteins was confirmed by SDS-PAGE and Coomassie Brilliant Blue staining.
The purified protein was labeled with a fluorescent label using the Monolith NT™ RED-NHS Protein Fluorescent Labeling Kit (NanoTemper).
Specifically, 20 µM of the protein was dissolved in PBS (pH 7.4) buffer, mixed with the fluorescent reagent, and reacted at room temperature under dark conditions for 30 minutes. The mixture was then buffered with MST analysis buffer (50 mM HEPES, 150 mM NaCl, 1 mM DTT, 0.05% Tween-20, pH 7.5). […]
The reaction samples were injected into an MST-specific capillary (NanoTemper) and analyzed using a Monolith NT.115 device (NanoTemper) under laser intensity conditions. […]
The measured data were analyzed using MO. Affinity Analysis software (NanoTemper), and the dissociation constant (Kd) was calculated from the binding curve.

Row | binding affinity of full-length PDK1 compared to the PDK fragment [4] | Compound | Proliferation inhibition rate (%) ([1]; concentration 10 nM) | Proliferation inhibition rate (%) ([1]; concentration 100 nM) | Proliferation inhibition rate (%) ([1]; concentration 1 μM) | Proliferation inhibition rate (%) ([1]; concentration 10 μM) | Proliferation inhibition rate (%) ([1]; concentration 30 μM) | Proliferation inhibition rate (%) ([1]; concentration 50 μM) | Relative cell viability (%) [2] [%] | Relative cell viability (%) [3] [%]
1 | – | 12-[4-(2,2-dimethylmorpholin-4-yl)]dodecyl-N-(6-aminopurine-2-yl) carboxamide [Compound 11] | −25.47 | 100.00 | 100.00 | 100.00 | 100.00 | 100.00 | 26.19 | 31.19
2 | approximately six times stronger | Nc1ncccc1C(=O)NCCCCCCCCCCCCN1CCNCC1 [Compound 14, 2-Amino-N-(12-(piperazin-1-yl)dodecyl)nicotinamide] | – | – | – | – | – | – | – | –
